Measurements reported in ChEMBL document CHEMBL1135062, “Total synthesis and semi-synthetic approaches to analogues of antibacterial natural product althiomycin” (2002).
In brackets after ≈: the same amount, converted by molar mass.

How the values were obtained:
Type in all cases: functional
[1] = system: Enterococcus faecalis; assay: Tested for the minimum inhibitory concentration against […] faecalis 850E
[2] = system: Staphylococcus aureus; assay: Tested for the minimum inhibitory concentration against Staphylococcus aureus 853E
[3] = system: Saccharomyces cerevisiae; assay: Tested for the minimum inhibitory concentration against Saccharomyces cerevisiae NCYC 81
[4] = system: Streptococcus pneumoniae; assay: Tested for the minimum inhibitory concentration against Streptococcus pneumoniae 3512
[5] = system: Bacillus subtilis; assay: Tested for the minimum inhibitory concentration against Bacillus subtilis 6633
[6] = system: Escherichia coli; assay: Tested for the minimum inhibitory concentration against Escherichia coli 1852E + 3 ug/mL PMBN
[7] = system: Staphylococcus aureus; assay: Tested for the minimum inhibitory concentration against Staphylococcus aureus col
[8] = system: Escherichia coli; assay: Tested for the minimum inhibitory concentration against Escherichia coli 1852E PM

Compound: COC1=CC(=O)N(C(=O)[C@H]2CSC(CNC(C)=O)=N2)C1
- MIC [1]: 32 mg/L (≈ 108 µM)
- MIC [2]: 32 mg/L (≈ 108 µM)
- MIC [3]: > 32 mg/L
- MIC [4]: 16 mg/L (≈ 53.8 µM)
- MIC [5]: 16 mg/L (≈ 53.8 µM)
- MIC [6]: 8 mg/L
- MIC [7]: 32 mg/L (≈ 108 µM)
- MIC [8]: 16 mg/L (≈ 53.8 µM)

Compound: COC1=CC(=O)N(C(=O)[C@H]2CSC(C(CO)NC(=O)c3csc(/C=N/O)n3)=N2)C1 (some centres undefined)
- MIC [1]: 16 mg/L (≈ 36.4 µM)
- MIC [2]: 16 mg/L (≈ 36.4 µM)
- MIC [3]: > 32 mg/L
- MIC [4]: 4 mg/L (≈ 9.1 µM)
- MIC [5]: 16 mg/L (≈ 36.4 µM)
- MIC [6]: 1 mg/L
- MIC [7]: 16 mg/L (≈ 36.4 µM)
- MIC [8]: 1 mg/L (≈ 2.28 µM)

Compound: CO/N=C(\C(=O)N[C@@H]1C(=O)N2C(C(=O)O)=C(CSc3nc(=O)c(O)nn3C)CS[C@H]12)c1csc(N)n1 [CEFTRIAXONE]
- MIC [1]: 16 mg/L (≈ 28.9 µM)
- MIC [2]: 4 mg/L (≈ 7.21 µM)
- MIC [3]: > 32 mg/L
- MIC [4]: 0.01 mg/L (≈ 0.018 µM)
- MIC [5]: 0.25 mg/L (≈ 0.451 µM)
- MIC [6]: 0.01 mg/L
- MIC [7]: > 32 mg/L
- MIC [8]: 0.06 mg/L (≈ 0.108 µM)
